Source: ChEMBL document CHEMBL1201862, “PubChem BioAssay data set” (2004)
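All cell lines were grown in 96-well plates and treated with compound for 48 hours. Abbreviation: GI50, concentration required for 50% inhibition of growth.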 The source made the active and inactive calls. Rule as the data show it: active = GI50 up to about 1.1 µM and inactive = higher.

Experiments:
Experiment in all cases: NCI-60 cell line screen, 48 h
RPMI-8226 = test system: RPMI-8226
NCI/ADR-RES = test system: NCI/ADR-RES
RXF 393 = test system: RXF 393
OVCAR-8 = test system: OVCAR-8
MDA-MB-231 = test system: MDA-MB-231
SK-OV-3 = test system: SK-OV-3
PC-3 = test system: PC-3
EKVX = test system: EKVX
SR = test system: SR
SK-MEL-5 = test system: SK-MEL-5
OVCAR-3 = test system: OVCAR-3
HCT-116 = test system: HCT-116
COLO 205 = test system: COLO 205
SF-295 = test system: SF-295
ACHN = test system: ACHN
LOX IMVI = test system: LOX IMVI
OVCAR-5 = test system: OVCAR-5
KM12 = test system: KM12
MOLT-4 = test system: MOLT-4
HCC 2998 = test system: HCC 2998

SMILES | GI50 (RPMI-8226) | GI50 (NCI/ADR-RES) | GI50 (RXF 393) | GI50 (OVCAR-8) | GI50 (MDA-MB-231) | GI50 (SK-OV-3) | GI50 (PC-3) | GI50 (EKVX) | GI50 (SR) | GI50 (SK-MEL-5) | GI50 (OVCAR-3) | GI50 (HCT-116) | GI50 (COLO 205) | GI50 (SF-295) | GI50 (ACHN) | GI50 (LOX IMVI) | GI50 (OVCAR-5) | GI50 (KM12) | GI50 (MOLT-4) | GI50 (HCC 2998)
COc1ccc2cc(C(=O)CCC(=O)O)ccc2c1 | > 100 µM (inactive) | > 100 µM (inactive) | > 100 µM (inactive) | > 100 µM (inactive) | > 100 µM (inactive) | > 100 µM (inactive) | > 100 µM (inactive) | > 100 µM (inactive) | > 100 µM (inactive) | > 100 µM (inactive) | > 100 µM (inactive) | > 100 µM (inactive) | > 100 µM (inactive) | > 100 µM (inactive) | > 100 µM (inactive) | > 100 µM (inactive) | > 100 µM (inactive) | > 100 µM (inactive) | > 100 µM (inactive) | 
CN(C)c1ccc(/C=N/c2ccc(-c3nc4ccccc4o3)cc2)cc1 |  | 33.5 µM (inactive) |  | 31.8 µM (inactive) | 53.2 µM (inactive) | 35 µM (inactive) | 29.7 µM (inactive) | 28.6 µM (inactive) | 36 µM (inactive) | 13 µM (inactive) | 20.3 µM (inactive) | 53.7 µM (inactive) | 30.5 µM (inactive) |  | 54.3 µM (inactive) | 35.2 µM (inactive) | > 100 µM (inactive) | 31.8 µM (inactive) | 24.7 µM (inactive) | 14.7 µM (inactive)
C=C(C)C(=O)CC[C@@H](C)[C@H]1[C@@H](OC2OC(CO)C(O)C(O)C2O)C[C@@]2(C)[C@@H]3C[C@H](O)C4C(C)(C)[C@@H](OC5OC(CO)C(O)C(O)C5O)CC[C@@]45C[C@@]35CC[C@]12C (stereo partly specified) | > 100 µM (inactive) | > 100 µM (inactive) |  | > 100 µM (inactive) | > 100 µM (inactive) | > 100 µM (inactive) | > 100 µM (inactive) | > 100 µM (inactive) | 71.1 µM (inactive) | 46.6 µM (inactive) | > 100 µM (inactive) | > 100 µM (inactive) | 92 µM (inactive) | 71.6 µM (inactive) | > 100 µM (inactive) | > 100 µM (inactive) | > 100 µM (inactive) | > 100 µM (inactive) | 62.1 µM (inactive) | 47 µM (inactive)
ClCCN1CCOC1=C1C=CC=C1 | > 100 µM (inactive) | > 100 µM (inactive) |  | > 100 µM (inactive) | > 100 µM (inactive) | > 100 µM (inactive) | > 100 µM (inactive) | > 100 µM (inactive) | 19.3 µM (inactive) | > 100 µM (inactive) | > 100 µM (inactive) | > 100 µM (inactive) | > 100 µM (inactive) | > 100 µM (inactive) | > 100 µM (inactive) | > 100 µM (inactive) | > 100 µM (inactive) | 18.4 µM (inactive) | 55.8 µM (inactive) | 
CCN(CC)CCCNc1nc(=O)[nH]c(C)c1C(=O)Nc1c2ccccc2nc2ccccc12 | 5.9 µM (inactive) | 12.9 µM (inactive) | 27 µM (inactive) | 21.7 µM (inactive) | 12.9 µM (inactive) | 10.8 µM (inactive) | 17.1 µM (inactive) | 12.2 µM (inactive) |  | 10.8 µM (inactive) | 6.14 µM (inactive) | 5.41 µM (inactive) | 8.79 µM (inactive) | 5.97 µM (inactive) | 10.2 µM (inactive) | 8.43 µM (inactive) | 36.2 µM (inactive) | 3.56 µM (inactive) | 4.28 µM (inactive) | 8.79 µM (inactive)
BrC1=CN2C[n+]3cc(Br)c4ccccc4c3N=C2c2ccccc21 | 10.8 µM (inactive) | > 100 µM (inactive) |  | 16.7 µM (inactive) | 15 µM (inactive) | 22 µM (inactive) | 13.6 µM (inactive) |  | 3.18 µM (inactive) | 3.34 µM (inactive) | 2.88 µM (inactive) |  | 10.3 µM (inactive) | 8.59 µM (inactive) | 14.8 µM (inactive) | 12.4 µM (inactive) | 17.9 µM (inactive) | 3.65 µM (inactive) | 11 µM (inactive) | 
Cc1ccc(S(=O)(=O)N(CC(O)COc2ccccc2)c2c(F)c(F)cc(F)c2F)cc1 (stereo unspecified) | 18.7 µM (inactive) | 18.1 µM (inactive) |  | 22.4 µM (inactive) | 18.3 µM (inactive) | 19.4 µM (inactive) | 18.3 µM (inactive) | 27.9 µM (inactive) | 3.53 µM (inactive) | 15.9 µM (inactive) | 20.5 µM (inactive) | 37 µM (inactive) | 15.7 µM (inactive) | 24 µM (inactive) | 21.2 µM (inactive) | 16.6 µM (inactive) | 29 µM (inactive) | 25.7 µM (inactive) | < 0.01 µM (active) | 23.6 µM (inactive)
C=C1C[C@]23CC[C@@H]4C(CO)(CO)CC(=O)C[C@]4(C)[C@@H]2C(O)C[C@H]1C3 (stereo partly specified) | > 100 µM (inactive) | > 100 µM (inactive) |  | > 100 µM (inactive) | > 100 µM (inactive) | > 100 µM (inactive) | > 100 µM (inactive) | > 100 µM (inactive) | > 100 µM (inactive) |  | > 100 µM (inactive) | > 100 µM (inactive) | > 100 µM (inactive) | > 100 µM (inactive) | > 100 µM (inactive) | > 100 µM (inactive) | > 100 µM (inactive) | > 100 µM (inactive) | > 100 µM (inactive) | > 100 µM (inactive)
CO/N=C(\C)c1ccc(Nc2nc3ccccc3c3occc23)cc1 | 16.9 µM (inactive) | 15.6 µM (inactive) |  | 16.7 µM (inactive) | 12.7 µM (inactive) | 15.9 µM (inactive) | 16.2 µM (inactive) | 14 µM (inactive) | 24.7 µM (inactive) | 15.8 µM (inactive) | 30.2 µM (inactive) | 14.3 µM (inactive) | 14.5 µM (inactive) | 16.7 µM (inactive) | 14 µM (inactive) | 15.3 µM (inactive) | 16.3 µM (inactive) | 17.6 µM (inactive) | 17.1 µM (inactive) | 16.1 µM (inactive)
O=S(=O)(O)c1cc(S(=O)(=O)O)c2c(Nc3ccnc4ccccc34)ccc(S(=O)(=O)O)c2c1 | > 100 µM (inactive) | > 100 µM (inactive) | > 100 µM (inactive) | > 100 µM (inactive) | > 100 µM (inactive) | > 100 µM (inactive) | > 100 µM (inactive) | > 100 µM (inactive) |  | > 100 µM (inactive) | > 100 µM (inactive) | > 100 µM (inactive) | > 100 µM (inactive) | > 100 µM (inactive) | > 100 µM (inactive) | > 100 µM (inactive) | > 100 µM (inactive) | > 100 µM (inactive) | > 100 µM (inactive) | > 100 µM (inactive)
N#Cc1ccc(/C=[N+](/C=c2ccc(=C=[N-])cc2)N(CCO)C2=NCCN2)cc1 |  | > 100 µM (inactive) |  | > 100 µM (inactive) | > 100 µM (inactive) | > 100 µM (inactive) | > 100 µM (inactive) | > 100 µM (inactive) | > 100 µM (inactive) | > 100 µM (inactive) | > 100 µM (inactive) | > 100 µM (inactive) | > 100 µM (inactive) | > 100 µM (inactive) | > 100 µM (inactive) | > 100 µM (inactive) | > 100 µM (inactive) | > 100 µM (inactive) | > 100 µM (inactive) | > 100 µM (inactive)
